Measured values as given in the supplement of paper PMC10307832.

How the values were obtained:
Experiment in all cases: relative viability (nuclei count vs DMSO), 5 days (fraction); higher = more cells survive
[1] = compound: CCN(CC)CCNC(=O)c1c(C)[nH]c(/C=C2\C(=O)Nc3ccc(F)cc32)c1C [Sunitinib]
Summary of the method: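 Lung cancer cell lines received five library-drug doses (not always all listed) spaced by √10, pinned on vehicle-anchored 1536-well plates after an overnight stay at 37 °C. Five days later, with no medium change, nuclei were Hoechst-stained, imaged at 4× and counted with MetaXpress. Viability is treated-well nuclei relative to vehicle-well nuclei, as a median across plates. Passing plates had control CV below 25% and at least one doubling.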

[2] = compound: CCN(CC)CCNC(=O)c1c(C)[nH]c(/C=C2\C(=O)Nc3ccc(F)cc32)c1C [Sunitinib] + CC1(C)CCC(c2ccc(Cl)cc2)=C(CN2CCN(c3ccc(C(=O)NS(=O)(=O)c4ccc(N[C@H](CCN5CCOCC5)CSc5ccccc5)c(S(=O)(=O)C(F)(F)F)c4)cc3)CC2)C1 [Navitoclax] (partner 0.5 µM)
Summary of the method: (§1)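 The day after seeding in 1536-well plates, lung cancer cell lines were treated by pin tool with a single drug, or with a fixed anchor-drug dose together with five library-drug doses (not always all listed) in √10 steps. After 5 days, a combined fix-and-stain solution (final 0.05% Triton X-100, 1% formaldehyde, 1 ug/ml Hoechst) was added. Nuclei counted on 4× images gave relative viability as treated counts over vehicle counts, reported as the median of duplicate plates.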

[3] = compound: CCN(CC)CCNC(=O)c1c(C)[nH]c(/C=C2\C(=O)Nc3ccc(F)cc32)c1C [Sunitinib] + Cc1cc(Nc2cc(N3CCN(C)CC3)nc(Sc3ccc(NC(=O)C4CC4)cc3)n2)n[nH]1 [Tozasertib] (partner 0.1 µM)
Summary of the method: as §1

[4] = compound: CCN(CC)CCNC(=O)c1c(C)[nH]c(/C=C2\C(=O)Nc3ccc(F)cc32)c1C [Sunitinib] + N=C(N)NC(=N)NCCc1ccccc1 [Phenformin] (partner 250 µM)
Summary of the method: as §1

Cell Line	relative viability ([1]; 0.02 µM)	relative viability ([1]; 0.06325 µM)	relative viability ([1]; 0.2 µM)	relative viability ([1]; 0.6325 µM)	relative viability ([1]; 2 µM)	relative viability ([2]; first compound 0.02 µM)	relative viability ([2]; first compound 0.06325 µM)	relative viability ([2]; first compound 0.2 µM)	relative viability ([2]; first compound 0.6325 µM)	relative viability ([2]; first compound 2 µM)	relative viability ([3]; first compound 0.02 µM)	relative viability ([3]; first compound 0.06325 µM)	relative viability ([3]; first compound 0.2 µM)	relative viability ([3]; first compound 0.6325 µM)	relative viability ([3]; first compound 2 µM)	relative viability ([4]; first compound 0.02 µM)	relative viability ([4]; first compound 0.06325 µM)	relative viability ([4]; first compound 0.2 µM)	relative viability ([4]; first compound 0.6325 µM)	relative viability ([4]; first compound 2 µM)
LOU-NH91	1.01	0.969	1	0.98	0.941	0.727	0.665	0.746	0.734	0.564	0.666	0.732	0.673	0.753	0.738	0.734	0.699	0.765	0.825	0.764
LU99A	0.84	1.1	1.04	0.938	0.901	0.807	0.765		0.882	0.788	0.296	0.285	0.267	0.273	0.273	0.727	0.906	1	0.803	0.782
LXF-289	0.949	0.986	1.04	1.02	1.01	0.93	0.94	1	0.945	0.915	0.199	0.182	0.191	0.203	0.269	0.461	0.517	0.548	0.533	0.511
NCI-H23	0.849	1.15	1.07	1.17	0.938	0.806	0.879	0.899	1.07	0.66		0.37	0.499	0.341	0.264	0.753		0.93	0.878	0.763
NCI-H322M	0.866	1.02	1	0.936	0.892	1.25	1.18	1.3	1.25	1.34	0.452	0.464	0.546	0.547	0.42	0.736	0.857		0.855	0.7
NCI-H441	0.863		1.17	1.11	1.12		0.684	0.946	0.808	0.368	0.706	0.639	0.652	0.71	0.494	0.729	0.816	0.781	0.957	0.793
NCI-H460			1.05	0.995	1.08	0.862	1.19	1.37	1.41	1.08	0.427	0.206	0.421	0.292	0.104	0.48	0.567	0.54	0.535	0.487
NCI-H520	0.926	1.08	1.07	0.979	0.912		1.11	1.21	1.02	0.897	0.44	0.384	0.435	0.375	0.421	0.674	0.685	0.471	0.661	0.424
NCI-H596	0.952	1.15		0.998	0.913	0.987	0.802	1.14	0.945	0.956	1.01	0.944	0.985	0.912	0.705	0.641	0.816	0.829	0.792	0.723
